Experimental data: article PMC7115536 (European Journal of Medicinal Chemistry, 2011)

How the values were obtained:
HEL cell cultures = conditions: human
[1] = cited from earlier work
WT HBV = format: cell-based
[2] = Stability studies at 37 °C in complete culture medium and CEM-SS cell extracts; format: in vitro ADME; conditions: for t1/2 cell extracts (half-life of decomposition): CEM-SS cell extracts, 0.1 mM

Row | Compound | Minimum cytotoxic concentration (HEL cell cultures) [µM] | Stability in all tested media [1] | Potency relative to PMEA (more potent) (WT HBV) | t1/2 cell extracts (half-life of decomposition) [2] | Degradation in complete culture medium after 24 h ([2]; complete culture medium, 24 h) [%]
1 | Nc1ncnc2c1ncn2CCOCP(=O)(O)O [PMEA, 9-(2-Phosphonomethoxyethyl)adenine, reference compound] | >200 | stable | – | – | –
2 | C[C@H](Cn1cnc2c(N)ncnc21)OCP(=O)(O)O [PMPA, (R)-9-(2-Phosphonomethoxypropyl)-adenine, reference compound] | >200 | stable | – | – | –
3 | Nc1ncnc2c1ncn2CCOCP(=O)([O-])[S-].[Na+].[Na+] (stereo not shown) [S-PMEA 3, {[2-(6-Amino-9H-purin-9-yl)ethoxy]methyl}phosphonothioic acid] | >200 | – | 1.5–2.5 fold | Stable ^c | –
4 | C[C@H](Cn1cnc2c(N)ncnc21)OCP(=O)([O-])[S-].[Na+].[Na+] (stereo partly drawn) [S-PMPA 4, ({[(2R)-1-(6-Amino-9H-purin-9-yl)propan-2-yl]oxy}methyl)phosphonothioic acid] | >200 | – | – | Stable ^c | 20
